In brackets after ≈: the same amount, converted by molar mass. Several values for one entry are separate records, joined by “and”; a condition that tells them apart may be missing. Identical values can stand only once. Like-named read-outs stand apart in the source and are kept apart here.
Experiments:
PvPI4K = PvPI4K (Plasmodium vivax, UniProt A5KB26); experiment: biochemical; settings: purified recombinant PvPI4K, 10 μM ATP, ADP-Glo; mean of N ≥ 2; read-out: PvPI4K IC50 ± SD
[1] = tested on: P. falciparum NF54 strain; experiment: Antiplasmodial activity, parasite lactate dehydrogenase assay, NF54; type: cell-based, Plasmodium falciparum; settings: parasite lactate dehydrogenase assay over 72 h, read-out: Pf IC50 ± SD NF54
[2] = tested on: Chinese Hamster Ovary (CHO) cell line; experiment: cells; type: cell-based; settings: MTT assay over 48h, read-out: CHO IC50
[3] = Solubility, miniaturized shake flask method; settings: aqueous solution
[4] = tested on: multidrug-resistant strain, K1; experiment: Antiplasmodial activity, parasite lactate dehydrogenase assay, K1; type: cell-based, Plasmodium falciparum; settings: parasite lactate dehydrogenase assay over 72 h, read-out: Pf IC50 ± SD K1
β-hematin (βH) formation = experiment: NP-40 mediated cell-free β-hematin assay; settings: read-out: β-hematin IC50
[5] = tested on: P. falciparum PI4K conditional knockdown line; experiment: microbe, parasite or virus in culture; type: cell-based, Plasmodium falciparum
[6] = Plasmodium falciparum, NF54, 72 h
[7] = Plasmodium falciparum, K1, 72 h
[8] = cell-free NP-40 detergent-mediated assay, n = 2

Chain of PvPI4K (A5KB26 entry or part of it): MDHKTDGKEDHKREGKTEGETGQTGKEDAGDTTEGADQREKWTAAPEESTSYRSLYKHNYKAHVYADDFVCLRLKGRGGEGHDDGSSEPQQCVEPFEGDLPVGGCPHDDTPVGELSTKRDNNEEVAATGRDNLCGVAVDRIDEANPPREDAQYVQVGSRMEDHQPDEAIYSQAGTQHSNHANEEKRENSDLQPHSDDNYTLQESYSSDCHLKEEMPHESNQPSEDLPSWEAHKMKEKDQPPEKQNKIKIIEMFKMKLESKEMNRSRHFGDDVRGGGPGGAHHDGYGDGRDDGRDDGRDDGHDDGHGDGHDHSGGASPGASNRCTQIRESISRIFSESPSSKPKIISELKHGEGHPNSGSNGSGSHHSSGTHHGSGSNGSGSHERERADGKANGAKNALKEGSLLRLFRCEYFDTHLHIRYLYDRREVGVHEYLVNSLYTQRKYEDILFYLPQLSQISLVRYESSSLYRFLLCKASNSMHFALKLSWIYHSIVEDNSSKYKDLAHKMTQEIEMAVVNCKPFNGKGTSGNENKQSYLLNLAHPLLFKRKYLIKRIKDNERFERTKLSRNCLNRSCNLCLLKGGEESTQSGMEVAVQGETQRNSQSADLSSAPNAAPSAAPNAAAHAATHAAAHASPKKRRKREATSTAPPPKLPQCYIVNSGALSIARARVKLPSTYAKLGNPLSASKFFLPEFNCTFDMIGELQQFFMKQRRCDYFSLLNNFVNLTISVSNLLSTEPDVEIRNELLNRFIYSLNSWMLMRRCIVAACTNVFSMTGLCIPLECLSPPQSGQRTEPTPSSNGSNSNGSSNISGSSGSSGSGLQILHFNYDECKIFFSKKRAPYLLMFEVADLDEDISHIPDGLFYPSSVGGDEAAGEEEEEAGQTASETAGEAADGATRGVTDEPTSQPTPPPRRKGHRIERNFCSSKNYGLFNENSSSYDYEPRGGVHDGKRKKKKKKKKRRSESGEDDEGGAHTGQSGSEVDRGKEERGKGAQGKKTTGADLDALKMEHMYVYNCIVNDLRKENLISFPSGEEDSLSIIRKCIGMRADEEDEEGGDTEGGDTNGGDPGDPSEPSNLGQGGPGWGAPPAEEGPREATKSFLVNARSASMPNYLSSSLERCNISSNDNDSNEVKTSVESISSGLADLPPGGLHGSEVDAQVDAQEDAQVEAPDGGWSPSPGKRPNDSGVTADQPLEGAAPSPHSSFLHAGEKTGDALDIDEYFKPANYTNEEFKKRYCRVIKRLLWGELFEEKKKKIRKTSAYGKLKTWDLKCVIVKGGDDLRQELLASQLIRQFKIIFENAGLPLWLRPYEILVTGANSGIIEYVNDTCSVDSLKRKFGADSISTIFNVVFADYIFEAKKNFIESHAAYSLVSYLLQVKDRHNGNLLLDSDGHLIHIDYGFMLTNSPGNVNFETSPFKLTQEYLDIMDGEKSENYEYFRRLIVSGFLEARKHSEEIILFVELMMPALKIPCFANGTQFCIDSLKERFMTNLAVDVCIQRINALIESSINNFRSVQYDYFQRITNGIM

Compound | IC50 (PvPI4K) | IC50 [1, 6] | IC50 ([2]; Cricetulus griseus, CHO) | solubility at 20 h [3] | IC50 [4, 7] | IC50 (β-hematin (βH) formation; [8]) | further results
CC1CNCCC1Nc1ccnc2ccc(-c3ccc(C(F)(F)F)nc3)nc12 (centres unmarked) [Compound 24, N-(3-Methylpiperidin-4-yl)-6-[6-(trifluoromethyl)pyridin-3-yl]-1,5-naphthyridin-4-amine] | 0.131 ± 0.089 µM | 0.05 ± 0.025 µM | 47 µM | 195 µM (≈ 75.5 µg/mL) | 0.104 ± 0.009 µM |  | 
N[C@@H]1CCN(c2ccnc3ccc(-c4ccc(C(F)(F)F)nc4)nc23)C1 [Compound 13, (3R)-1-[6-[6-(Trifluoromethyl)pyridin-3-yl]-1,5-naphthyridin-4-yl]pyrrolidin-3-amine] | 1.2 ± 0.481 µM | 0.06 ± 0.008 µM | 20 µM | 135 µM (≈ 48.5 µg/mL) | 0.11 ± 0.013 µM |  | 
CS(=O)(=O)c1cccc(-c2ccc3nccc(NC4CCCNC4)c3n2)c1 (centres unmarked) [Compound 8, 6-(3-Methylsulfonylphenyl)-N-piperidin-3-yl-1,5-naphthyridin-4-amine] | 0.151 ± 0.072 µM | 0.2 ± 0.002 µM | 33.3 µM | 195 µM (≈ 74.6 µg/mL) |  | > 500 µM | 
CN1CCC(Nc2cc(N)nc3ccc(-c4ccc(C(F)(F)F)nc4)nc23)CC1 [Compound 36, 4-N-(1-Methylpiperidin-4-yl)-6-[6-(trifluoromethyl)pyridin-3-yl]-1,5-naphthyridine-2,4-diamine] | 9.4 ± 0.849 µM | 0.04 ± 0.011 µM | 26 µM | 180 µM (≈ 72.4 µg/mL) | 0.192 ± 0.007 µM | 35 µM and < 60 µM | 
FC(F)(F)c1ccc(-c2ccc3nccc(NC4CCCNC4)c3n2)cn1 (centres unmarked) [Compound 12, N-Piperidin-3-yl-6-[6-(trifluoromethyl)pyridin-3-yl]-1,5-naphthyridin-4-amine] | 0.276 ± 0.033 µM | 0.09 ± 0.001 µM | 43 µM | 195 µM (≈ 72.8 µg/mL) |  | 66 ± 1 µM | 
CN1CCC(Nc2ccnc3ccc(-c4ccc(OCCCO)nc4)nc23)CC1 [Compound 35, 3-[5-[8-[(1-Methylpiperidin-4-yl)amino]-1,5-naphthyridin-2-yl]pyridin-2-yl]oxypropan-1-ol] | 0.019 ± 0.012 µM | 0.203 ± 0.006 µM | > 50 µM | 200 µM (≈ 78.7 µg/mL) | 0.462 ± 0.052 µM | > 200 µM | 
CCN(CC)CCCC(C)Nc1ccnc2cc(Cl)ccc12 (centres unmarked) [Chloroquine, reference compound] |  |  |  |  |  |  | IC50 (β-hematin (βH) formation): 21 ± 2.1 µM
FC(F)(F)c1ccc(-c2ccc3nccc(NCC4CCNCC4)c3n2)cn1 [Compound 20, N-(Piperidin-4-ylmethyl)-6-[6-(trifluoromethyl)pyridin-3-yl]-1,5-naphthyridin-4-amine] | 1.51 ± 0.643 µM | 0.065 ± 0.002 µM | > 50 µM | 190 µM (≈ 73.6 µg/mL) | 0.35 ± 0.004 µM | 37 µM and < 60 µM | 
(R)-6-(6-Methoxypyridin-3-yl)-N-(pyrrolidin-3-yl)-1,5-naphthyridin-4-amine [Compound 34] | 0.111 ± 0.069 µM |  |  |  |  |  | IC50 [1]: 0.225 ± 0.007 µM; IC50 [2]: 17 µM; IC50 [4]: 0.667 ± 0.06 µM
Cc1nc(C(F)(F)F)ccc1-c1ccc2nccc(NC3CCN(C)CC3)c2n1 [Compound 31, N-(1-Methylpiperidin-4-yl)-6-[2-methyl-6-(trifluoromethyl)pyridin-3-yl]-1,5-naphthyridin-4-amine] | 0.174 ± 0.102 µM | 0.499 ± 0.024 µM | > 50 µM | 195 µM (≈ 78.3 µg/mL) | 0.367 ± 0.005 µM |  | 
CC(=O)N[C@@H]1CCN(c2ccnc3ccc(-c4cccc(S(C)(=O)=O)c4)nc23)C1 [Compound 10, N-[(3R)-1-[6-(3-Methylsulfonylphenyl)-1,5-naphthyridin-4-yl]pyrrolidin-3-yl]acetamide] | 0.076 ± 0.006 µM | 0.89 ± 0.057 µM |  | 185 µM (≈ 75.9 µg/mL) |  |  | 
OCCN1CCC(Nc2ccnc3ccc(-c4ccc(C(F)(F)F)nc4)nc23)CC1 [Compound 22, 2-[4-[[6-[6-(Trifluoromethyl)pyridin-3-yl]-1,5-naphthyridin-4-yl]amino]piperidin-1-yl]ethanol] | 0.303 ± 0.074 µM | 0.253 ± 0.002 µM |  | 145 µM (≈ 60.5 µg/mL) | 0.385 ± 0.041 µM |  | 
CNC(=O)c1ccc(-c2ccc3nccc(NC4CCN(C)CC4)c3n2)cn1 [Compound 33, N-Methyl-5-[8-[(1-methylpiperidin-4-yl)amino]-1,5-naphthyridin-2-yl]pyridine-2-carboxamide] | 0.077 ± 0.048 µM | 0.4 ± 0.001 µM | 25 µM |  | > 6 µM | 131 ± 6 µM | 
CS(=O)(=O)c1cccc(-c2ccc3nccc(N4CC[C@@H](NC(N)=O)C4)c3n2)c1 [Compound 11, [(3R)-1-[6-(3-Methylsulfonylphenyl)-1,5-naphthyridin-4-yl]pyrrolidin-3-yl]urea] | 0.039 ± 0.007 µM | 0.63 ± 0.133 µM |  |  |  |  | 
CN1CCC(Nc2cc(=O)[nH]c3ccc(-c4ccc(C(F)(F)F)nc4)nc23)CC1 [Compound 37, 4-[(1-Methylpiperidin-4-yl)amino]-6-[6-(trifluoromethyl)pyridin-3-yl]-1H-1,5-naphthyridin-2-one] | > 10 µM | 4.2 ± 1 µM |  | 45 µM (≈ 18.2 µg/mL) |  |  | 
CN1CCC(Nc2ccnc3ccc(-c4cccnc4)nc23)CC1 [Compound 29, N-(1-Methylpiperidin-4-yl)-6-pyridin-3-yl-1,5-naphthyridin-4-amine] | 0.064 ± 0.014 µM | 0.526 ± 0.047 µM | > 50 µM | 195 µM (≈ 62.3 µg/mL) | 1.28 ± 0.148 µM |  | 
FC(F)(F)c1ccc(-c2ccc3nccc(N[C@H]4CCNC4)c3n2)cn1 [Compound 15, N-[(3S)-Pyrrolidin-3-yl]-6-[6-(trifluoromethyl)pyridin-3-yl]-1,5-naphthyridin-4-amine] | 0.164 ± 0.069 µM | 0.07 ± 0.013 µM | 46 µM | 200 µM (≈ 71.9 µg/mL) |  |  | 
CN1CCC(Nc2ccnc3ccc(-c4ccc(C#N)nc4)nc23)CC1 [Compound 32, 5-[8-[(1-Methylpiperidin-4-yl)amino]-1,5-naphthyridin-2-yl]pyridine-2-carbonitrile] | 0.676 ± 0.023 µM | 0.16 ± 0.04 µM | > 50 µM | 200 µM (≈ 68.9 µg/mL) | 0.73 ± 0.053 µM | 51 ± 2 µM | 
CS(=O)(=O)c1ccc(-c2cnc(N)c(-c3ccc(C(F)(F)F)nc3)c2)cc1 [MMV390048, reference compound] |  | 0.036 µM |  |  |  |  | IC50 ([5]; Plasmodium falciparum, 72 h, read-out: ABS IC50 for PfPI4K cKD, N=1, +aTc, experiment N=1, +aTc (500 nM, control conditions), 72 hours): 0.031 µM; IC50 ([5]; Plasmodium falciparum, 72 h, read-out: ABS IC50 for PfPI4K cKD, N=1, no aTc, experiment N=1, no aTc (PI4K knockdown), 72 hours): 0.004 µM; IC50 ([5]; Plasmodium falciparum, 72 h, read-out: ABS IC50 for PfPI4K cKD, N=2, +aTc, experiment N=2, +aTc (500 nM, control conditions), 72 hours): 0.029 µM; IC50 ([5]; Plasmodium falciparum, 72 h, read-out: ABS IC50 for PfPI4K cKD, N=2, no aTc, experiment N=2, no aTc (PI4K knockdown), 72 hours): 0.00431 µM; IC50 ([5]; Plasmodium falciparum, 72 h, read-out: ABS IC50 for PfPI4K cKD, N=3, +aTc, experiment N=3, +aTc (500 nM, control conditions), 72 hours): 0.025 µM; IC50 ([5]; Plasmodium falciparum, 72 h, read-out: ABS IC50 for PfPI4K cKD, N=3, no aTc, experiment N=3, no aTc (PI4K knockdown), 72 hours): 0.00348 µM; IC50 ([5]; Plasmodium falciparum, read-out: ABS IC50 for PfPI4K cKD, Mean + SD, +aTc, mean of N=3, +aTc (control conditions)): 0.026 ± 0.003 µM; IC50 ([5]; Plasmodium falciparum, read-out: ABS IC50 for PfPI4K cKD, Mean + SD, no aTc, mean of N=3, no aTc (PI4K knockdown)): 0.0037 ± 0.0004 µM; IC50 ([5]; read-out: ABS IC50 for PfPI4K cKD, N=1, +aTc, experiment N=1, +aTc (500 nM, control conditions), 72 hours): 0.027 µM; IC50 ([5]; read-out: ABS IC50 for PfPI4K cKD, N=2, +aTc, experiment N=2, +aTc (500 nM, control conditions), 72 hours): 0.021 µM; IC50 ([5]; read-out: ABS IC50 for PfPI4K cKD, N=2, no aTc, experiment N=2, no aTc (PI4K knockdown), 72 hours): 0.00339 µM; IC50 ([5]; read-out: ABS IC50 for PfPI4K cKD, N=3, +aTc, experiment N=3, +aTc (500 nM, control conditions), 72 hours): 0.023 µM; IC50 ([5]; read-out: ABS IC50 for PfPI4K cKD, N=3, no aTc, experiment N=3, no aTc (PI4K knockdown), 72 hours): 0.00331 µM
NC1CCN(c2ccnc3ccc(-c4ccc(C(F)(F)F)nc4)nc23)CC1 [Compound 18, 1-[6-[6-(Trifluoromethyl)pyridin-3-yl]-1,5-naphthyridin-4-yl]piperidin-4-amine] | 0.559 ± 0.03 µM | 0.42 ± 0.087 µM | > 50 µM | 160 µM (≈ 59.7 µg/mL) | 0.477 ± 0.034 µM | 137 ± 4 µM | 
CS(=O)(=O)c1cccc(-c2ccc3nccc(N4CC[C@@H](N)C4)c3n2)c1 [Compound 9, (3R)-1-[6-(3-Methylsulfonylphenyl)-1,5-naphthyridin-4-yl]pyrrolidin-3-amine] | 0.199 ± 0.037 µM | 0.1 ± 0.005 µM | 22 µM | 200 µM (≈ 73.7 µg/mL) |  |  | 
FC(F)(F)c1ccc(-c2ccc3nccc(OC4CCNCC4)c3n2)cn1 [Compound 19, 8-Piperidin-4-yloxy-2-[6-(trifluoromethyl)pyridin-3-yl]-1,5-naphthyridine] | 0.265 ± 0.16 µM | 3.85 ± 0.954 µM |  |  |  | 94 ± 3 µM | 

From publication PMC11247499, “2,8-Disubstituted-1,5-naphthyridines as Dual Inhibitors of Plasmodium falciparum Phosphatidylinositol-4-kinase and Hemozoin Formation with In Vivo Efficacy” (Journal of Medicinal Chemistry, 2024)
